According to patent US20020146679A1, “Method for creating endothelial cell dysfunction in cell culture” (priority 2001, published 2002):
Several values for one entry are separate records, joined by “and”; a condition that tells them apart may be missing. Equal entries are not always repeated. Entries after “also recorded” stand apart in the source; their conditions may differ.

Columns and labels:
Format in all cases: cell-based, human
[1] = system: EA hy926 endothelial cells; experiment: Tube formation assay on MATRIGEL (in vitro angiogenesis)
Experimental: According to an aspect of the invention, EA hy926 (EA) cells are initially grown in standard endothelial cell culture medium consisting of MCDB 131 (Clonetics Corp.) supplemented with 10 fetal bovine serum (FBS) (Hyclone laboratories), 100 U/mL penicillin/streptomycin, 50 μg/mL gentamicin, and other endothelial growth supplements (EGM bullet kit, Clonetics Corp.). […] Cells were grown in these conditions for 6 to 7 days. EA cells are then dispersed by trypsinization, counted, suspended in EGM media containing […], and plated onto the surface of a MATRIGEL® basement membrane protein matrix (0.5 mL/well, dispensed into 24-well tissue culture plates according to the manufacturer's instructions) at a density of 5×10^5 cells per well (24 well plate). The cells were then placed in a CO2 incubator at 37° C. and observed over a 16- to 24-hour period for cell differentiation into tube-like structures resembling capillaries. […]
EBM medium and its supplement were purchased from Clonetics. […] EA cells were then dispersed by trypsinization, counted, suspended in EGM media containing 10% FBS, and plated onto the surface of a MATRIGEL® basement membrane matrix (0.5 mL/well, dispensed into 24-well tissue culture plates according to the manufacturer's instructions) at a density of 5×10^5 cells per well (24-well plate). […]

[2] = system: EA hy926 cells; experiment: Western blotting analysis of endothelial marker proteins
Experimental: The whole cell lysates were generated by suspending cell pellets with protein lysis buffer containing 10 mM Tris.CI (pH 7.6), 1 mM EDTA (pH 8.0), 100 mM NaCI, 1 μg/mL aprotinin, and 100 μg/mL phenylmethylsulfonyl fluoride. The lysates were sonicated for 15 seconds at output control level 4 with Sonifier 450 model manufactured by VWR Scientific products. Fifty microgram lysates protein for each sample was electrophoretically separated in 8% to 16% Tris-Glycine Gel and transferred to a nitrocellulose membrane. The proteins on the membrane were stained with PONCEAS solution to check if the proteins loading and transfer were even. The membranes were separately incubated with 5% dry milk Phosphate-buffered saline (PBS) at room temperature for 2 hours and followed by overnight incubation at 4° C. with fresh 5% dry milk PBS containing primary antibodies at 1:2000 dilution. The peroxidase conjugated secondary antibodies was diluted at 1:4000 dilution with 5% PBS buffer. The incubation with secondary antibody was carried out at room temperature for 1 hour. The membranes were then subject to staining with ECL solution and exposure to films.

[3] = system: EA.hyb926 Endothelial Cells; experiment: Gene expression by Affymetrix gene chip profiling
Experimental: Control cells were treated with vehicle for the same times and RNA isolated as above. Transcript integrity was monitored using denaturing agarose gel electrophoresis in 1X MOPS. Biotinylated target RNA was prepared from 15 μg of total RNA using the Affymetrix protocol. Briefly, double-stranded cDNA was prepared from the RNA template using a modified oligo-dT primer containing a 5′ T7 RNA polymerase promoter sequence and the Superscript Choice System for cDNA Synthesis (Life Technologies Inc., Gaithersburg, Md.). Following phenol-chloroform extraction and ethanol precipitation, one-half of the cDNA reaction (0.5-1.0 μg) was used as template in an in vitro transcription reaction containing T7 RNA polymerase, a mixture of unlabeled ATP, CTP, GTP, and UTP, and biotin-11-CTP and biotin-16-UTP (BioArray High Yield Kit, ENZO, Inc.). The resulting biotinylated-cRNA “target” was purified on an affinity resin (RNeasy, Qiagen) and quantified using the convention that 1 O.D. Two-hundred sixty corresponds to 40 μg/mL of RNA. Typical yields ranged from 50 to 100 μg with transcript sizes between […] as determined by gel electrophoresis. Fifteen micrograms of biotinylated cRNA was randomly fragmented to an average size of 50 nucleotides by incubating at 94° C. for 35 minutes in 40 mM TRIS-acetate, pH 8.1, 100 mM potassium acetate, and 30 mM magnesium acetate. The fragmented cRNA was hybridized in a solution containing 100 mM MES, 1 M [Na^+], 20 mM EDTA, 0.01% TWEEN 20, 50 pM of Control Oligonucleotide B2 (Affymetrix, Inc.), 0.1 mg/mL of sonicated herring sperm DNA, and 0.5 mg/mL BSA for 16 hours at 45° C. on a Human 6800 Affymetrix GeneChip. Each hybridization included a mixture of four bacterial biotinylated-RNA transcripts (BioB, BioC, BioD, and cre) spiked at 1.5, 5, 25, and 100 pM, respectively. The hybridization reactions were processed and scanned according to the standard Affymetrix protocols.
EA cells incubated with 10 ng/mL TNFα(with 5% FBS) for 6 hours (short-term) or 6 days (chronic exposure) were evaluated for identification of cytokine-responsive endothelial genes. […] In addition, ecNOS expression was reduced 4-fold from control, consistent with the western and northern blot data (FIGS. 6 and 7).

[4] = SNAP 200 μM co-incubated with TNFα for 6 days
[5] = 6-day (chronic) TNFα treatment, 5% FBS

CC(=O)NC(C(=O)O)C(C)(C)SN=O (racemic) [SNAP, S-Nitroso-N-acetyl-D, L-penicillamine, reference compound]
tube formation / protection from TNFα-induced dysfunction ([1]; SNAP 200 μM co-incubated with TNFα 10 ng/mL for 6 days prior to plating on MATRIGEL): protects cells from TNFα induced dysfunction | PAI-1 protein expression [2, 4]: reduces | VCAM-1 protein expression [2, 4]: reduces | caveolin-1 protein expression [2, 4]: reduces

TNFα
serum-stimulated tube formation ([1]; TNFα exposure greater than 3 days (up to 6 days) in 5% FBS, then plated on matrigel): cells no longer form tubes; also recorded: fail to form tubes | CD31 protein expression [2, 5]: increased | PAI-1 protein expression [2, 5]: increased | VCAM-1 protein expression [2, 5]: increased | caveolin-1 protein expression [2, 5]: increased | ecNOS protein expression [2, 5]: markedly decreased | ecNOS expression reduced from control ([3]; 6 day TNFα treatment, 10 ng/mL with 5% FBS): 4 fold | Short- (6 hr Tx) Fold Increase: MCP-1 ([3]; TNFα 6 hr, accession HG4069): 4.5 Fold | Short- (6 hr Tx) Fold Increase: Type IV collagenase ([3]; TNFα 6 hr, accession J05070): 4.7 Fold | Short- (6 hr Tx) Fold Increase: GM-CSF ([3]; TNFα 6 hr, accession M13207): 23.0 Fold | Short- (6 hr Tx) Fold Increase: Vitronectin ([3]; TNFα 6 hr, accession M14648): 4.3 Fold | Short- (6 hr Tx) Fold Increase: RANTES ([3]; TNFα 6 hr, accession M21121): 39.5 Fold | Short- (6 hr Tx) Fold Increase: Interleukin-8 ([3]; TNFα 6 hr, accession M28130): 4.6 Fold | Short- (6 hr Tx) Fold Increase: TNF-Inducible, CD44 adhesion receptor ([3]; TNFα 6 hr, accession M31165): 2.7 Fold | Short- (6 hr Tx) Fold Increase: NFkB1 (p105) ([3]; TNFα 6 hr, accession M58603): 4.4 Fold | Short- (6 hr Tx) Fold Increase: A20: TNFα-inducible transcription factor ([3]; TNFα 6 hr, accession M59465): 6.5 Fold | Short- (6 hr Tx) Fold Increase: VCAM-1 ([3]; TNFα 6 hr, accession M60335): 32 Fold and 32.3 Fold | Short- (6 hr Tx) Fold Increase: ecNOS (NOS 3) ([3]; TNFα 6 hr, accession M93718, nc = no change from vehicle treated): did not affect | Short- (6 hr Tx) Fold Increase: HIF-1 α ([3]; TNFα 6 hr, accession U22431): 4.6 Fold | Short- (6 hr Tx) Fold Increase: VEGF C ([3]; TNFα 6 hr, accession U43142): 7.8 Fold | Short- (6 hr Tx) Fold Increase: Hiapl ([3]; TNFα 6 hr, accession U45878): 17.7 Fold | Short- (6 hr Tx) Fold Increase: Prointerleukin-1β ([3]; TNFα 6 hr, accession X04500): 42.2 Fold | Short- (6 hr Tx) Fold Increase: Manganese superoxide dismutase ([3]; TNFα 6 hr, accession X07834): 13.1 Fold | Short- (6 hr Tx) Fold Increase: Macrophage inflammatory protein2-β ([3]; TNFα 6 hr, accession X53800): 11.2 Fold | Short- (6 hr Tx) Fold Increase: Integrin, αV subunit (vitronectin receptor) ([3]; TNFα 6 hr, accession X68742): 4.3 Fold | Short- (6 hr Tx) Fold Increase: MT-MMP ([3]; TNFα 6 hr, accession X83535): 4.3 Fold | Chronic- (6 day Tx) Fold Increase: MCP-1 ([3]; TNFα 6 day, accession HG4069): 8.7 Fold | Chronic- (6 day Tx) Fold Increase: Type IV collagenase ([3]; TNFα 6 day, accession J05070): 27.2 Fold | Chronic- (6 day Tx) Fold Increase: Von Willebrand factor ([3]; TNFα 6 day, accession M10321): −8.3 Fold | Chronic- (6 day Tx) Fold Increase: GM-CSF ([3]; TNFα 6 day, accession M13207): 37.1 Fold | Chronic- (6 day Tx) Fold Increase: Vitronectin ([3]; TNFα 6 day, accession M14648): 6.8 Fold | Chronic- (6 day Tx) Fold Increase: RANTES ([3]; TNFα 6 day, accession M21121): 62.8 Fold | Chronic- (6 day Tx) Fold Increase: Interleukin-8 ([3]; TNFα 6 day, accession M28130): 32.6 Fold | Chronic- (6 day Tx) Fold Increase: TNF-Inducible, CD44 adhesion receptor ([3]; TNFα 6 day, accession M31165): 37.1 Fold | Chronic- (6 day Tx) Fold Increase: NFkB1 (p105) ([3]; TNFα 6 day, accession M58603): 2.9 Fold | Chronic- (6 day Tx) Fold Increase: A20: TNFα-inducible transcription factor ([3]; TNFα 6 day, accession M59465): 6.6 Fold | Chronic- (6 day Tx) Fold Increase: ecNOS (NOS 3) ([3]; TNFα 6 day, accession M93718): −3.9 Fold | Chronic- (6 day Tx) Fold Increase: TRAIL ([3]; TNFα 6 day, accession U37518): 4.8 Fold | Chronic- (6 day Tx) Fold Increase: VEGF C ([3]; TNFα 6 day, accession U43142): 27.1 Fold | Chronic- (6 day Tx) Fold Increase: Hiapl ([3]; TNFα 6 day, accession U45878): 6.9 Fold | Chronic- (6 day Tx) Fold Increase: Prointerleukin-1β ([3]; TNFα 6 day, accession X04500): 213.1 Fold | Chronic- (6 day Tx) Fold Increase: Manganese superoxide dismutase ([3]; TNFα 6 day, accession X07834): 63.4 Fold | Chronic- (6 day Tx) Fold Increase: Macrophage inflammatory protein2-β ([3]; TNFα 6 day, accession X53800): 40.6 Fold | Chronic- (6 day Tx) Fold Increase: Integrin, αV subunit (vitronectin receptor) ([3]; TNFα 6 day, accession X68742): 6.8 Fold | Chronic- (6 day Tx) Fold Increase: MCP-3 ([3]; TNFα 6 day, accession X72308): 19.9 Fold | Chronic- (6 day Tx) Fold Increase: CD95 (Fas) ([3]; TNFα 6 day, accession X83492): 4.3 Fold | Chronic- (6 day Tx) Fold Increase: MT-MMP ([3]; TNFα 6 day, accession X83535): 26.1 Fold | Chronic- (6 day Tx) Fold Increase: MCP-2 ([3]; TNFα 6 day, accession X99886): 131.7 Fold | increased expression of protective genes (superoxide dismutase, A-20, hiap-1, TRAIL, CD95) ([3]; TNFα exposure to EA cells): 4.3-17.7 fold | increases in expression of proinflammatory (proatherogenic) genes ([3]; chronic TNFα exposure (6 days)): 6.8-75.8 fold
